Measured values reported in patent US7713706B2, “Method of fixing low-molecular compound to solid-phase support” (RIKEN, priority 2003, dated 2010).

Tests used:
[1] = test system: anti-digoxin monoclonal antibody clone DI-22-FITC conjugate; test: Detection of low molecule-protein bonding on low molecule-fixed slide (fluorescent slide scanner, 488 nm); format: binding; conditions: light of 488 nm; 162 μg/mL anti-digoxin monoclonal antibody clone DI-22-FITC conjugate; room temperature 1 hour; compound fixed on photophilic atomic group-introduced slide
Procedure: (§1) On the photophilic atomic group-introduced slide, 0.2 μL of each of solutions of low-molecular compounds (biotin, rhodamine B, digoxin) in DMSO, which had been prepared in concentrations of 100, 10, 1, 0.1 and 0.01 mM, was spotted. The slide was dried in an incubator at 35° C. for 3 hours and further dried with a vacuum pump for 20 hours. […] The slide was then washed while shaking by immersing in ethanol, DMF, THF, ethanol and deionized water in this order (for 1 hour each). Thus, a slide on which low molecules were fixed was produced.
(§2) Onto the low molecule-fixed slide, a protein solution (162 μg/mL anti-digoxin monoclonal antibody clone DI-22-FITC conjugate, 3.7 μg/mL streptavidin-Alexa Fluor 633 conjugate, 1% (w/v) skimmed milk, 77 mM NaCl, 0.05% (w/v) TWEEN™ 20 (polysorbate 20), 50 mM Tris-HCl, pH 7.5) was added at a rate of […], and then treated at room temperature for 1 hour. The slide was washed while shaking three times with a wash buffer (77 mM NaCl, 0.05% (w/v) TWEEN™ 20 (polysorbate 20), 50 mM Tris-HCl, pH 7.5), rinsed with deionized water, and dehydrated in a dehydration centrifuge (400×g) for 1 minute, The slide was exited with light of 488, 532 and 635 nm, respectively, and the emitted fluorescent light was observed on a fluorescent slide scanner. […]

[2] = target: streptavidin-Alexa Fluor 633 conjugate (Streptomyces avidinii, UniProt P22629); test: Detection of low molecule-protein bonding on low molecule-fixed slide (fluorescent slide scanner, 635 nm); format: binding; conditions: light of 635 nm; 3.7 μg/mL streptavidin-Alexa Fluor 633 conjugate; room temperature 1 hour; compound fixed on photophilic atomic group-introduced slide
Procedure: as §1, §2

Chain of streptavidin-Alexa Fluor 633 conjugate (P22629 25-183): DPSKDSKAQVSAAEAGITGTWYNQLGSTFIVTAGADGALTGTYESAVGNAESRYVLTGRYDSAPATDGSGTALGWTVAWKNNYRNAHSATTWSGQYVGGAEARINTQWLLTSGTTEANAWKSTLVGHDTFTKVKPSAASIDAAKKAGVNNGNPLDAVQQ

## C[C@H]1O[C@@H](O[C@H]2C(O)C[C@H](OC3CC[C@@]4(C)[C@H](CC[C@@H]5[C@@H]4C[C@@H](O)[C@]4(C)[C@@H](C6=CC(=O)OC6)CC[C@]54O)C3)O[C@@H]2C)C[C@H](O)C1O[C@H]1C[C@H](O)[C@H](O)[C@@H](C)O1 (some centres unmarked) [digoxin]
[1]
  binding of fixed low-molecular compound to protein (fluorescence detected at spotted areas): bound to the protein

## O=C(O)CCCC[C@@H]1SC[C@@H]2NC(=O)N[C@@H]21 [biotin]
[2]
  binding of fixed low-molecular compound to protein (fluorescence detected at spotted areas): bound to the protein
